Measurements from publication PMC5668088, “A phase I clinical trial of binimetinib in combination with FOLFOX in patients with advanced metastatic colorectal cancer who failed prior standard therapy” (Oncotarget, 2017).
Like-named read-outs stand apart in the source and are kept apart here.

Key:
[1] = 5-FU plasma pharmacokinetics without and with binimetinib (LC-MS/MS)
Experimental: Fluorouracil levels in plasma were determined using an LC-MS/MS analytical assay also in the APCF with LLOQ of 3 ng/mL from a 200 μL aliquot of plasma.

[2] = human, in vivo, po
Experimental: A standard 3 + 3 dose-escalation design was followed using a continuous and intermittent oral binimetinib dosing schedule combined with fixed-dose FOLFOX. […] The continuous binimetinib dosing schedule was comprised of 2 dosing levels: 30 mg orally twice daily and 45 mg orally twice daily continuously starting on day 1 with FOLFOX, repeated every 2 weeks. The MTD of binimetinib continuous daily dosing was explored in an additional 6-patient cohort to investigate potential FOLFOX-binimetinib pharmacokinetic interactions. In addition, the MTD dose of binimetinib was explored further with FOLFOX in an intermittent sequential schedule in order to minimize treatment toxicity, with binimetinib twice daily on days 1–5 with FOLFOX on days 6–7 every 2 weeks. The starting dose of binimetinib on the intermittent arm was the MTD dose level identified on the continuous dosing schedule. Following standard dose-escalation rules, the maximum tolerated dose (MTD) for either schedule was defined as the highest dose level tested in which no more than 1 of 6 patients experienced a dose-limiting toxicity (DLT) in the dose-escalation phase. […] No intra-patient dosing escalations were allowed. No escalation beyond the previous binimetinib monotherapy recommended dose of 45 mg PO BID was allowed. […]

[3] = test system: MEK1/2; details: preclinical; cited from earlier work
[4] = set-up: method as in ref 19–24 = [19]; 19 Sosman JA Kittaneh M Lolkema MP Postow MA Schwartz G Franklin C Matano A Bhansali S Parasuraman S Kim K A phase 1b/2 study of LEE011 in combination with binimetinib (MEK162) in patients with NRAS-m || [20]; 20 Juric D Soria JC Sharma S Banerji U Azaro A Desai J A phase Ib open-label, multicenter, dose-escalation and-expansion study of orally administered binimetinib (MEK162) plus BYL719 in adult patients || [21]; 21 Chi P Qin L D’Angelo SP Dickson MA Gounder MM Keohan ML Shoushtari AN Condy MM Konen T Fruauff A DeMatteo RP Singer S Hwang S A phase Ib/II study of MEK162 (binimetinib [BINI]) in combination with || [22]; 22 Van Herpen C Postow MA Carlino MS Kalkavan H Weise A Amaria RN De Vos F Carvajal RD Matano A Bhansali S Lam L Yerramilli-Rao P Sosman JA A phase 1b/2 study of ribociclib (LEE011; CDK4/6 inhibitor) || [23]; 23 Dummer R Sandhu S Hassel JC Muñoz E Berking C Gesierich A Ascierto PA Esposito O Carter K Antona V Radhakrishnan R Cui X Caponigro G LOGIC2: Phase 2,multi-center, open-label study of sequential enc; details: oral twice daily, continuous dosing; five phase Ib/II trials; cited from earlier work
[5] = set-up: method as in ref 25 = [25]; 25 Grisham RN Gordon MS Harb WA Aghajanian C McMeekin DS McKinley K Anderson L Chavira R Christy-Bittel J Barrett E Moore KN A phase Ib dose-escalation study of binimetinib (MEK162) in combination wit; details: orally twice daily, cited from earlier work
[6] = test system: advanced solid tumors; details: twice daily, cited from earlier work
[7] = cited from earlier work
[8] = test system: previously-treated mCRC; set-up: method as in ref 34 = [34]; 34 Bendell J Won KT Ean CC Yung-Jue B Lee C Desai J Lewin J Wallin J Das Thakur M Mwawasi G Cha E Infante J Safety and efficacy of cobimetinib (cobi) and atezolizumab (atezo) in a Phase 1b study of me; details: escalating doses of cobimetinib in combination with atezolizumab; 23 patients (4 responders); cited from earlier work
[9] = for Oxaliplatin T1/2, Avg STD: Table 4
[10] = Pt#1, Cycle 1 (without binimetinib)
[11] = Pt#2, Cycle 1 (without binimetinib)
[12] = Pt#2, Cycle 2 (with binimetinib)
[13] = Pt#3, Cycle 1 (without binimetinib)
[14] = Pt#3, Cycle 2 (with binimetinib)
[15] = Pt#4, Cycle 1 (without binimetinib)
[16] = Pt#4, Cycle 2 (with binimetinib)
[17] = Pt#5, Cycle 1 (without binimetinib)
[18] = Pt#5, Cycle 2 (with binimetinib)
[19] = Pt#6, Cycle 2 (with binimetinib)

O=c1[nH]cc(F)c(=O)[nH]1 [5-FU, Fluorouracil]
5-FU steady-state level, Avg STD ([1]; Cycle 2 (with binimetinib 45 mg BID continuous), plasma, PK cohort): 597.6 ± 204.5 ng/mL
5-FU steady-state level [1, 10]: 353.0 ng/mL
5-FU steady-state level ([1]; Pt#1, Cycle 2 (with binimetinib)): 293.1 ng/mL
5-FU steady-state level [1, 11]: 524.0 ng/mL
5-FU steady-state level [1, 12]: 480.5 ng/mL
5-FU steady-state level [1, 13]: 627.5 ng/mL
5-FU steady-state level [1, 14]: 718.0 ng/mL
5-FU steady-state level [1, 15]: 427.5 ng/mL
5-FU steady-state level [1, 16]: 770.5 ng/mL
5-FU steady-state level [1, 17]: 621.0 ng/mL
5-FU steady-state level [1, 18]: 726.0 ng/mL
5-FU steady-state level ([1]; Pt#6, Cycle 1 (without binimetinib)): 428.0 ng/mL
Difference in 5-FU PK with vs without binimetinib ([1]; in vivo): no significant differences

Cn1cnc2c(F)c(Nc3ccc(Br)cc3F)c(C(=O)NOCCO)cc21 [binimetinib]
MTD of binimetinib in combination with FOLFOX [2]: 45 mg
Inhibition of MEK and downstream phosphorylated ERK (pERK) [3]: nanomolar range
MTD or RP2D of binimetinib in combination with various targeted agents [4]: 45 mg
RP2D of binimetinib combined with paclitaxel ([5]; continuous dosing, paclitaxel 80 mg/m^2 weekly 3 out of 4 weeks): 30 mg
RP2D of binimetinib combined with paclitaxel ([5]; intermittent dosing (days 1–5 weekly for 3 out of 4 weeks)): 45 mg
Recommended phase II dose (RP2D) of oral binimetinib ([6]; due to recurrent DLTs of retinal events): 45 mg
MTD of single-agent oral binimetinib ([6]; pretreated advanced solid tumors, first dose-escalation phase I study): 60 mg
Patients with atrial fibrillation ([7]; in vivo): 1
Patients with irregular heart rate ([7]; in vivo): 1
Patients with grade 1–2 retinal adverse events ([7]; phase II trial, binimetinib 45 mg twice daily, NRAS- or BRAF-mutated advanced melanomas): 18%

O=C(c1ccc(F)c(F)c1Nc1ccc(I)cc1F)N1CC(O)([C@@H]2CCCCN2)C1 [cobimetinib]
Partial responses [8]: 17%

O=C1[O][Pt]2([NH][C@@H]3CCCC[C@H]3[NH]2)[O]C1=O [Oxaliplatin]
Oxaliplatin AUC, Avg STD ([9]; Cycle 1 (without binimetinib)): 26580.5 4844.8 μg/L X hr
Oxaliplatin T1/2, Avg STD ([9]; Cycle 1 (without binimetinib)): 37.1 11.7 36
Oxaliplatin AUC, Avg STD ([9]; Cycle 1 (without binimetinib), listed as oxaliplatin): 26580.5 ± 4844.8 μg/L X hr
Oxaliplatin AUC, Avg STD ([9]; Cycle 2 (with binimetinib)): 32190.9 11861.2 μg/L X hr
Oxaliplatin T1/2, Avg STD ([9]; Cycle 2 (with binimetinib)): 38.8 22.6 36
Oxaliplatin AUC, Avg STD ([9]; Cycle 2 (with binimetinib), listed as oxaliplatin): 32190.9 ± 11861.2 μg/L X hr
Oxaliplatin AUC [9, 10]: 28618.0 μg/L X hr
Oxaliplatin Cmax [9, 10]: 0.536 µg/mL
Oxaliplatin AUC [9, 11]: 31146.9 μg/L X hr
Oxaliplatin Cmax [9, 11]: 0.7808 µg/mL
Oxaliplatin AUC [9, 12]: 51036.0 μg/L X hr
Oxaliplatin Cmax [9, 12]: 0.59 µg/mL
Oxaliplatin AUC [9, 13]: 25757.7 μg/L X hr
Oxaliplatin Cmax [9, 13]: 0.6865 µg/mL
Oxaliplatin AUC [9, 14]: 33953.4 μg/L X hr
Oxaliplatin Cmax [9, 14]: 0.7265 µg/mL
Oxaliplatin AUC [9, 15]: 18615.5 μg/L X hr
Oxaliplatin Cmax [9, 15]: 0.6015 µg/mL
Oxaliplatin AUC [9, 16]: 25138.7 μg/L X hr
Oxaliplatin Cmax [9, 16]: 0.7485 µg/mL
Oxaliplatin AUC [9, 17]: 28764.2 μg/L X hr
Oxaliplatin Cmax [9, 17]: 0.3893 µg/mL
Oxaliplatin AUC [9, 18]: 19805.3 μg/L X hr
Oxaliplatin Cmax [9, 18]: 0.5835 µg/mL
Oxaliplatin AUC [9, 19]: 31020.9 μg/L X hr
Oxaliplatin Cmax [9, 19]: 0.671 µg/mL
Oxaliplatin average T1/2 ([9]; with binimetinib): 38.8 ± 22.6 h
Oxaliplatin average T1/2 ([9]; without binimetinib): 37.1 ± 11.7 h
